Marks after values point to notes of the source that are not given here. Blank lines part the entries; values can stand above or below the compound they belong to.
Key:
[1] = Competitive slurry experiments between polymorph forms (thermodynamic stability); assay type: physicochemical; settings: slurried 3-5 days, XRD
Procedure: In order to find out the thermodynamic stability between the different forms, several competitive slurry experiments were carried out. Form 1, Form 2, Form 2*, Form 3, Form 4, Form 4*, Form 4**, Form 5, Form 7, Form 8, Form 9, Form 10, Form 11, Form 11*, and Form 13 (10 mg for each) was mixed and slurried in 2 mL of solvent at both RT and 50° C. The solids were slurried for 3-5 days and then analyzed by XRD.
In order to find out the thermodynamic stability between Form 13 and Form 9, several competitive slurry experiments were carried out. 15 mg of Form 1, Form 9 and Form 13 solid were mixed in 1 mL of toluene, IPAc, and n-butyl acetate, and slurried for 3 days at RT and 50° C.
The residual solid was analyzed by XRD.

IL-6 = test: Inhibition of IL-6 in LPS-stimulated human monocyte cells (THP-1), HTRF; assay type: cell-based; settings: Homo sapiens; THP-1 cells, LPS 500 ng/mL, IL-6 by HTRF
Procedure: Human Monocyte Cell Culture: A human monocyte cell line (THP-1 cells; Catalog #TIB-202, ATCC, Manassas, Va.) was cultured in Roswell Park Memorial Institute (RPMI) 1640 Medium (Catalog #21870-100, Buffalo, N.Y.) with 1% L-glutamine, 1% HEPES, 1% sodium pyruvate, 2% sodium bicarbonate supplemented with 100 units/mL penicillin, 50 μg/mL streptomycin, 2-mercaptoethanol (0.05 mM) [basal medium] and 10% fetal bovine serum (Catalog #16140089, Life Technologies, Carlsbad, Calif.) at 37° C. and 5% CO2.
Compound Screening: THP-1 cells were cultured in basal media with 1% FBS for 24 hours before the start of the assay. Each compound of Formula (I) was dissolved in DMSO as a 10 mM stock and used to prepare compound source plates. Serial dilution (1:3, 10-point dose-response curves starting from 10 μM) and compound transfer was performed using the ECHO 550 (Labcyte, Sunnyvale, Calif.) into 384-well white low volume assay plates (Greiner Bio-One) with appropriate DMSO backfill for a final DMSO concentration of 0.1%. THP-1 cells were plated at 5000 cells/well in the 384-well plates and incubated at 37° C. for 2 h. 500 ng/mL of LPS was added after 2 hours and cells were incubated for another 22 hours at 37° C. Plates were spun in a centrifuge for 1 minute at 10,000 rpm and a mixture of anti-IL-6 XL665, and anti-IL-6 Cryptate diluted in reconstitution buffer (Cisbio Inc.) was added to each well. Following incubation for 3 hrs at room temperature, homogeneous time-resolved fluorescence (HTRF) was measured using the Envision (Perkin Elmer) at 665 nm and […]. The ratio of fluorescence at 665 nm to 620 nm was used as a readout for IL-6 quantification. All samples were processed in duplicate. Readings were normalized to DMSO treated cells and normalized activities were utilized for EC50 calculations using the dose-response log (inhibitor) vs. response -variable slope (four parameters) nonlinear regression feature available in GraphPad Prism 5.0 (or Dotmatics). For EC50 of >10 μM, the percent inhibition at 10 μM is provided.

[2] = Dynamic vapor sorption (DVS) scan; assay type: physicochemical; settings: for water absorption (DVS scan): at 90% RH
Source text: The purity of the Form 13 sample was 98.8%; the KF of an undried Form 13 sample was 35.7%.

[3] = Slurry experiments in various solvents (polymorph screen); assay type: physicochemical
Procedure: Slurry experiments in various solvents were performed. Approximately 30-80 mg of the starting solid (a non-stoichiometric hydrate of Form 1 having between […] and about 20% by weight water) was slurried in 39 different solvents (pure and binary solvents; the ratio of organic solvent/water (V/V) was […]) at RT and 50° C. for 5 days. Three solvates, one non-stoichiometric hydrate, and eleven non-solvated forms were identified. […] XRD of both wet and dry samples were scanned (FIG. 12A (dry sample)).
The slurry experiments identified 3 solvated forms from wet samples (Solvates 1, 2, and 3); 2 non-stoichiometric hydrates of Form 1 (Forms 12 and 13); and 11 non-solvated forms (Forms 1-11). In some instances, similar XRD scans with minor differences were obtained. These were considered to be part of the same class (e.g., the same form). For example, XRD scans of Form 2 and Form 2* were similar and were considered to belong to the same class. The solvated forms were obtained from wet sample analysis; after drying, the sample indicated a different XRD.
Solvate 1 was obtained from acetone at RT, and after drying, a low crystallinity solid was generated. Solvate 2 was obtained from acetone (at RT) and acetone/water (at RT), and after drying, Form 4** was generated. Solvate 3 was obtained from EtOH/water at RT, and after drying, Form 2 was generated.

[4] = slurry in Acetonitrile/water (5% water), RT
[5] = slurry in EA/water (5% water), RT
[6] = slurry in Heptane/water (5% water), RT
[7] = slurry in IPAc/water (5% water), RT
[8] = slurry in MA/water (5% water), 50° C.
[9] = slurry in MIBK/water (5% water), RT
[10] = slurry in MeOH/water (5% water), RT
[11] = slurry in MtBE/water (5% water), RT
[12] = slurry in n-Butyl acetate/water (5% water), RT
[13] = slurry in Acetonitrile/water (5% water), 50° C.
[14] = slurry in DCM/water (5% water), 50° C.
[15] = slurry in DCM/water (5% water), RT
[16] = slurry in Heptane/water (5% water), 50° C.
[17] = slurry in IPAc/water (5% water), 50° C.
[18] = slurry in MA/water (5% water), RT
[19] = slurry in MIBK/water (5% water), 50° C.
[20] = slurry in MeOH/water (5% water), 50° C.
[21] = slurry in MtBE/water (5% water), 50° C.
[22] = slurry in Toluene/water (5% water), 50° C.
[23] = slurry in Toluene/water (5% water), RT
[24] = slurry in n-Butanol/water (5% water), 50° C.
[25] = slurry in n-Butanol/water (5% water), RT
[26] = slurry in n-Butyl acetate/water (5% water), 50° C.
[27] = slurry in Acetone/water (5% water), RT
[28] = slurry in EtOH/water (5% water), RT

thermodynamic stability between forms (competitive slurry) ([1]; EA at RT and 50° C.): most stable | EC50 (IL-6): 74 nM
SMILES: CN1CCN(c2cncc3[nH]c(-c4n[nH]c5ccc(-c6cccnc6)cc45)nc23)CC1 [4*]

water absorption (DVS scan) [2]: 17%
SMILES: CC(C)CC(=O)Nc1cncc(-c2ccc3[nH]nc(-c4nc5c(-c6cccc(F)c6)cncc5[nH]4)c3c2)c1 [Form 1]

change of form before and after the DVS scan [2]: did not change its form | water absorption (DVS scan) [2]: 0.8%
SMILES: CC(C)CC(=O)Nc1cncc(-c2ccc3[nH]nc(-c4nc5c(-c6cccc(F)c6)cncc5[nH]4)c3c2)c1 [Form 9]

Form, Dry [3, 4]: Form 1 | Form, Wet [3, 4]: Form 12 | Form, Dry [3, 5]: Form 1 | Form, Wet [3, 5]: Form 12 | Form, Dry [3, 6]: Form 12 | Form, Wet [3, 6]: Form 13 | Form, Dry [3, 7]: Form 1 | Form, Wet [3, 7]: Form 12 | Form, Dry [3, 8]: Form 4 | Form, Wet [3, 8]: Form 12 | Form, Dry [3, 9]: Form 1 | Form, Wet [3, 9]: Form 12 | Form, Dry [3, 10]: Form 1 | Form, Wet [3, 10]: Form 12 | Form, Dry [3, 11]: Form 1 | Form, Wet [3, 11]: Form 12 | Form, Dry [3, 12]: Form 12 | Form, Wet [3, 12]: Form 13
SMILES: CC(C)CC(=O)Nc1cncc(-c2ccc3[nH]nc(-c4nc5c(-c6cccc(F)c6)cncc5[nH]4)c3c2)c1 [Form 12]

Form, Dry [3, 13]: Form 13 | Form, Wet [3, 13]: Form 13 | Form, Dry ([3]; slurry in DCM, 50° C.): Form 13 | Form, Wet ([3]; slurry in DCM, 50° C.): Form 13 | Form, Dry [3, 14]: Form 1 | Form, Wet [3, 14]: Form 13 | Form, Dry [3, 15]: Form 1 | Form, Wet [3, 15]: Form 13 | Form, Dry ([3]; slurry in Heptane, 50° C.): Form 13 | Form, Wet ([3]; slurry in Heptane, 50° C.): Form 13 | Form, Dry [3, 16]: Form 1 | Form, Wet [3, 16]: Form 13 | Form, Dry [3, 6]: Form 12 | Form, Wet [3, 6]: Form 13 | Form, Dry [3, 17]: Form 13 | Form, Wet [3, 17]: Form 13 | Form, Dry [3, 18]: Form 1 | Form, Wet [3, 18]: Form 13 | Form, Dry [3, 19]: Form 1 | Form, Wet [3, 19]: Form 13 | Form, Dry ([3]; slurry in MeOH, RT): Form 1 | Form, Wet ([3]; slurry in MeOH, RT): Form 13 | Form, Dry [3, 20]: Form 13 | Form, Wet [3, 20]: Form 13 | Form, Dry [3, 21]: Form 13 | Form, Wet [3, 21]: Form 13 | Form, Dry [3, 22]: Form 13 | Form, Wet [3, 22]: Form 13 | Form, Dry [3, 23]: Form 1 | Form, Wet [3, 23]: Form 13 | Form, Dry [3, 24]: Form 1 | Form, Wet [3, 24]: Form 13 | Form, Dry [3, 25]: Form 13 | Form, Wet [3, 25]: Form 13 | Form, Dry [3, 26]: Form 1 | Form, Wet [3, 26]: Form 13 | Form, Dry [3, 12]: Form 12 | Form, Wet [3, 12]: Form 13 | Form, Dry ([3]; slurry in water, 50° C.): Form 13 | Form, Wet ([3]; slurry in water, 50° C.): Form 13 | Form, Dry ([3]; slurry in water, RT): Form 1 | Form, Wet ([3]; slurry in water, RT): Form 13 | thermodynamic stability between forms (competitive slurry) ([1]; water at RT and 50° C.): most stable | water absorption (DVS scan) [2]: 17%
SMILES: CC(C)CC(=O)Nc1cncc(-c2ccc3[nH]nc(-c4nc5c(-c6cccc(F)c6)cncc5[nH]4)c3c2)c1 [Form 13]

Form, Dry ([3]; slurry in Acetone, RT): Low | Form, Wet ([3]; slurry in Acetone, RT): Solvate 1
SMILES: CC(C)CC(=O)Nc1cncc(-c2ccc3[nH]nc(-c4nc5c(-c6cccc(F)c6)cncc5[nH]4)c3c2)c1 [Solvate 1]

Form, Dry ([3]; slurry in Acetone, 50° C.): Form 4** | Form, Wet ([3]; slurry in Acetone, 50° C.): Solvate 2 | Form, Dry [3, 27]: Form 4** | Form, Wet [3, 27]: Solvate 2
SMILES: CC(C)CC(=O)Nc1cncc(-c2ccc3[nH]nc(-c4nc5c(-c6cccc(F)c6)cncc5[nH]4)c3c2)c1 [Solvate 2]

Form, Dry [3, 28]: Form 2 | Form, Wet [3, 28]: Solvate 3
SMILES: CC(C)CC(=O)Nc1cncc(-c2ccc3[nH]nc(-c4nc5c(-c6cccc(F)c6)cncc5[nH]4)c3c2)c1 [Solvate 3]
